# Measured values as given in US20260242419A1, “A CYCLIC PEPTIDE FOR TRAPPING INTERLEUKIN-1 BETA” (Merck Sharp & Dohme LLC, priority 2023, published 2026).
# Starred links: 1 amine or outer side, 2 acyl side, 3 side chain; linkers in the order of their positions; H or OH if unused. Non-standard residues stand in square brackets, D forms with d. Residues, ends and D or L forms follow the SMILES beside them. Phe(4-(5-CO2H-2-pyrimidyl)) = N[C@@H](Cc1ccc(-c2ncc(C(=O)O)cn2)cc1)C(=O)O; Phe(4-(4-Ac-piperazinyl)) = CC(=O)N1CCN(c2ccc(C[C@H](N)C(=O)O)cc2)CC1; dPro(4R-(4-pyridylmethyl)) = O=C(O)[C@H]1C[C@@H](Cc2ccncc2)CN1; Trp(βS-Me,4-F) = C[C@@H](c1c[nH]c2cccc(F)c12)[C@H](N)C(=O)O; Bip(4'-CONH2) = NC(=O)c1ccc(-c2ccc(C[C@H](N)C(=O)O)cc2)cc1; Bip(4'-COOH) = N[C@@H](Cc1ccc(-c2ccc(C(=O)O)cc2)cc1)C(=O)O; Ala(1-bicyclo(1.1.1)pentyl) = N[C@@H](CC12CC(C1)C2)C(=O)O; dPro(4R-Bzl(4-F)) = O=C(O)[C@H]1C[C@@H](Cc2ccc(F)cc2)CN1; dPro(3S-(4-F-Bn)) = O=C(O)[C@@H]1NCC[C@@H]1Cc1ccc(F)cc1; Bip(4'-Cl) = N[C@@H](Cc1ccc(-c2ccc(Cl)cc2)cc1)C(=O)O; Ala(pyrimidin-5-yl) = N[C@@H](Cc1cncnc1)C(=O)O; Phe(4-COOH) = N[C@@H](Cc1ccc(C(=O)O)cc1)C(=O)O; Bip = N[C@@H](Cc1ccc(-c2ccccc2)cc1)C(=O)O; Pro(cis-4-F) = O=C(O)[C@@H]1C[C@H](F)CN1; Ala(4-THP) = N[C@@H](CC1CCOCC1)C(=O)O; X6 = O=C([C@H](Cc1ccncn1)N[*:1])[*:2]; d(αMeD) = C[C@@](N)(CC(=O)O)C(=O)O; 4Pal = N[C@@H](Cc1ccncc1)C(=O)O; aThr = C[C@H](O)[C@H](N)C(=O)O; d(αMeS) = C[C@@](N)(CO)C(=O)O; Cba = N[C@@H](CC1CCC1)C(=O)O; Dab = NCC[C@H](N)C(=O)O; Aib = CC(C)(N)C(=O)O
# Target: T1, IL-1β (Homo sapiens, UniProt P01584)
# T1 construct: purchased BioLegend 579404
# Test: IL-6 assay in MRC5 cells: inhibition of IL-1β induced IL-6 secretion (AlphaLISA)
# Format: cell-based
# Details: inhibition of IL-1β induced IL-6 secretion in MRC5 cells; read-out: MRC5 IC50
# Procedure, shortened: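 Compound was pre-incubated 1 h at ambient temperature with recombinant human IL-1β at 2λ EC80 before adding human lung fibroblast MRC5 cells (3000/well) in EMEM with 0.025% BSA. After overnight culture at 37 °C, 5% CO2, secreted IL-6 in conditioned medium was measured by AlphaLISA; IC50 from 4-parameter logistic fits.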
# T1 sequence (P01584 117-269): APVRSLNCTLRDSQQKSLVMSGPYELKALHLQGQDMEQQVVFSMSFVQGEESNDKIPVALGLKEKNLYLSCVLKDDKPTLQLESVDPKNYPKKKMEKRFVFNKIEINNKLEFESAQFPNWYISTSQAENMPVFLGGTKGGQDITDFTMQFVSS
row,SMILES,IC50
1,"C[C@@H](c1c[nH]c2cccc(F)c12)[C@@H]1NC(=O)[C@@H]2C[C@H](F)CN2C(=O)CNC(=O)[C@H](Cc2ccc(C(=O)O)cc2)NC(=O)[C@H](CC23CC(C2)C3)NC(=O)[C@H](Cc2ccc(-c3ccc(C(N)=O)cc3)cc2)NC(=O)[C@H]2C[C@@H](Cc3ccncc3)CN2C(=O)CNC(=O)[C@H](CCN)NC(=O)[C@H](CCC(N)=O)NC(=O)[C@H](Cc2cncnc2)NC(=O)[C@@](C)(CC(=O)O)NC(=O)[C@H](Cc2c[nH]c3ccccc23)NC(=O)[C@H](CO)NC(=O)C(C)(C)NC1=O [Example 342] (cyclo([Bip(4'-CONH2)][Ala(1-bicyclo(1.1.1)pentyl)][Phe(4-COOH)]G[Pro(cis-4-F)][Trp(βS-Me,4-F)][Aib]SW[d(αMeD)][Ala(pyrimidin-5-yl)]Q[Dab]G[dPro(4R-(4-pyridylmethyl))]))",0.022 nM
2,"C[C@@H](c1c[nH]c2cccc(F)c12)[C@@H]1NC(=O)[C@@H]2C[C@H](F)CN2C(=O)CNC(=O)[C@H](Cc2ccc(C(=O)O)cc2)NC(=O)[C@H](CC23CC(C2)C3)NC(=O)[C@H](Cc2ccc(-c3ccccc3)cc2)NC(=O)[C@H]2C[C@@H](Cc3ccncc3)CN2C(=O)CNC(=O)[C@H](CCN)NC(=O)[C@H](CCC(N)=O)NC(=O)[C@H](Cc2cncnc2)NC(=O)[C@@](C)(CC(=O)O)NC(=O)[C@H](Cc2c[nH]c3ccccc23)NC(=O)[C@H](CO)NC(=O)C(C)(C)NC1=O [Example 343] (cyclo([Bip][Ala(1-bicyclo(1.1.1)pentyl)][Phe(4-COOH)]G[Pro(cis-4-F)][Trp(βS-Me,4-F)][Aib]SW[d(αMeD)][Ala(pyrimidin-5-yl)]Q[Dab]G[dPro(4R-(4-pyridylmethyl))]))",0.026 nM
3,"C[C@@H](c1c[nH]c2cccc(F)c12)[C@@H]1NC(=O)[C@@H]2C[C@H](F)CN2C(=O)CNC(=O)[C@H](Cc2ccc(C(=O)O)cc2)NC(=O)[C@H](Cc2ccncc2)NC(=O)[C@H](Cc2ccc(-c3ccc(Cl)cc3)cc2)NC(=O)[C@H]2C[C@@H](Cc3ccncc3)CN2C(=O)CNC(=O)[C@H](CCN)NC(=O)[C@H](CCC(N)=O)NC(=O)[C@H](Cc2cncnc2)NC(=O)[C@@](C)(CC(=O)O)NC(=O)[C@H](Cc2c[nH]c3ccccc23)NC(=O)[C@H](CO)NC(=O)C(C)(C)NC1=O [Example 344] (cyclo([Bip(4'-Cl)][4Pal][Phe(4-COOH)]G[Pro(cis-4-F)][Trp(βS-Me,4-F)][Aib]SW[d(αMeD)][Ala(pyrimidin-5-yl)]Q[Dab]G[dPro(4R-(4-pyridylmethyl))]))",0.022 nM
4,"CC(C)C[C@@H]1NC(=O)[C@@](C)(CO)NC(=O)[C@H](Cc2c[nH]c3ccccc23)NC(=O)[C@H](CO)NC(=O)C(C)(C)NC(=O)[C@H]([C@@H](C)c2c[nH]c3cccc(F)c23)NC(=O)[C@@H]2C[C@H](F)CN2C(=O)CNC(=O)[C@H](Cc2ccc(C(=O)O)cc2)NC(=O)[C@H](Cc2ccncc2)NC(=O)[C@H](Cc2ccc(-c3ccc(C(=O)O)cc3)cc2)NC(=O)[C@H]2C[C@@H](Cc3ccncc3)CN2C(=O)CNC(=O)[C@H](CCN)NC(=O)[C@H](CCC(N)=O)NC1=O [Example 347] (cyclo([Bip(4'-COOH)][4Pal][Phe(4-COOH)]G[Pro(cis-4-F)][Trp(βS-Me,4-F)][Aib]SW[d(αMeS)]LQ[Dab]G[dPro(4R-(4-pyridylmethyl))]))",0.025 nM
5,"C[C@@H](c1c[nH]c2cccc(F)c12)[C@@H]1NC(=O)[C@@H]2C[C@H](F)CN2C(=O)CNC(=O)[C@H](Cc2ccc(C(=O)O)cc2)NC(=O)[C@H](CC23CC(C2)C3)NC(=O)[C@H](Cc2ccc(-c3ccc(C(=O)O)cc3)cc2)NC(=O)[C@H]2C[C@@H](Cc3ccncc3)CN2C(=O)CNC(=O)[C@H](CCN)NC(=O)[C@H](CCC(N)=O)NC(=O)[C@H](CC2CCC2)NC(=O)[C@@](C)(CC(=O)O)NC(=O)[C@H](Cc2c[nH]c3ccccc23)NC(=O)[C@H](CO)NC(=O)C(C)(C)NC1=O [Example 348] (cyclo([Bip(4'-COOH)][Ala(1-bicyclo(1.1.1)pentyl)][Phe(4-COOH)]G[Pro(cis-4-F)][Trp(βS-Me,4-F)][Aib]SW[d(αMeD)][Cba]Q[Dab]G[dPro(4R-(4-pyridylmethyl))]))",0.018 nM
6,"CC(=O)N1CCN(c2ccc(C[C@@H]3NC(=O)[C@H]4C[C@@H](Cc5ccncc5)CN4C(=O)CNC(=O)[C@H](CCN)NC(=O)[C@H](CCC(N)=O)NC(=O)[C@H](Cc4cncnc4)NC(=O)[C@@](C)(CO)NC(=O)[C@H](Cc4c[nH]c5ccccc45)NC(=O)[C@H](CO)NC(=O)C(C)(C)NC(=O)[C@H]([C@@H](C)c4c[nH]c5cccc(F)c45)NC(=O)[C@@H]4C[C@H](F)CN4C(=O)CNC(=O)[C@H](Cc4ccc(C(=O)O)cc4)NC(=O)[C@H](Cc4ccncc4)NC3=O)cc2)CC1 [Example 350] (cyclo([Phe(4-(4-Ac-piperazinyl))][4Pal][Phe(4-COOH)]G[Pro(cis-4-F)][Trp(βS-Me,4-F)][Aib]SW[d(αMeS)][Ala(pyrimidin-5-yl)]Q[Dab]G[dPro(4R-(4-pyridylmethyl))]))",0.02 nM
7,"C[C@H](O)[C@@H]1NC(=O)C(C)(C)NC(=O)[C@H]([C@@H](C)c2c[nH]c3cccc(F)c23)NC(=O)[C@@H]2C[C@H](F)CN2C(=O)CNC(=O)[C@H](Cc2ccc(C(=O)O)cc2)NC(=O)[C@H](Cc2ccncc2)NC(=O)[C@H](Cc2ccc(-c3ccc(C(=O)O)cc3)cc2)NC(=O)[C@H]2C[C@@H](Cc3ccncc3)CN2C(=O)CNC(=O)[C@H](CCN)NC(=O)[C@H](CCC(N)=O)NC(=O)[C@H]([C@H](C)O)NC(=O)[C@@](C)(CO)NC(=O)[C@H](Cc2c[nH]c3ccccc23)NC1=O [Example 352] (cyclo([Bip(4'-COOH)][4Pal][Phe(4-COOH)]G[Pro(cis-4-F)][Trp(βS-Me,4-F)][Aib][aThr]W[d(αMeS)][aThr]Q[Dab]G[dPro(4R-(4-pyridylmethyl))]))",0.023 nM
8,"C[C@H](O)[C@@H]1NC(=O)C(C)(C)NC(=O)[C@H]([C@@H](C)c2c[nH]c3cccc(F)c23)NC(=O)[C@@H]2C[C@H](F)CN2C(=O)CNC(=O)[C@H](Cc2ccc(C(=O)O)cc2)NC(=O)[C@H](Cc2ccncc2)NC(=O)[C@H](Cc2ccc(-c3ccc(C(=O)O)cc3)cc2)NC(=O)[C@H]2C[C@@H](Cc3ccncc3)CN2C(=O)CNC(=O)[C@H](CCN)NC(=O)[C@H](CCC(N)=O)NC(=O)[C@H](CC2CCOCC2)NC(=O)[C@@](C)(CC(=O)O)NC(=O)[C@H](Cc2c[nH]c3ccccc23)NC1=O [Example 353] (cyclo([Bip(4'-COOH)][4Pal][Phe(4-COOH)]G[Pro(cis-4-F)][Trp(βS-Me,4-F)][Aib][aThr]W[d(αMeD)][Ala(4-THP)]Q[Dab]G[dPro(4R-(4-pyridylmethyl))]))",0.017 nM

# Further lines, results first:
row,IC50,SMILES
1,0.012 nM,"C[C@@H](c1c[nH]c2cccc(F)c12)[C@@H]1NC(=O)[C@@H]2C[C@H](F)CN2C(=O)CNC(=O)[C@H](Cc2ccc(C(=O)O)cc2)NC(=O)[C@H](Cc2ccncc2)NC(=O)[C@H](Cc2ccc(-c3ccc(C(=O)O)cc3)cc2)NC(=O)[C@H]2C[C@@H](Cc3ccc(F)cc3)CN2C(=O)CNC(=O)[C@H](CCN)NC(=O)[C@H](CCC(N)=O)NC(=O)[C@H](Cc2ccncn2)NC(=O)C(C)(C)NC(=O)[C@H](Cc2c[nH]c3ccccc23)NC(=O)[C@H](CCC(=O)O)NC(=O)C(C)(C)NC1=O [Example 345] (cyclo([Bip(4'-COOH)][4Pal][Phe(4-COOH)]G[Pro(cis-4-F)][Trp(βS-Me,4-F)][Aib]EW[Aib][X6]Q[Dab]G[dPro(4R-Bzl(4-F))]))"
2,0.01 nM,"C[C@@H](c1c[nH]c2cccc(F)c12)[C@@H]1NC(=O)[C@@H]2C[C@H](F)CN2C(=O)CNC(=O)[C@H](Cc2ccc(C(=O)O)cc2)NC(=O)[C@H](Cc2ccncc2)NC(=O)[C@H](Cc2ccc(-c3ccc(C(=O)O)cc3)cc2)NC(=O)[C@H]2[C@@H](Cc3ccc(F)cc3)CCN2C(=O)CNC(=O)[C@H](CCN)NC(=O)[C@H](CCC(N)=O)NC(=O)[C@H](Cc2cncnc2)NC(=O)C(C)(C)NC(=O)[C@H](Cc2c[nH]c3ccccc23)NC(=O)[C@H](CCC(=O)O)NC(=O)C(C)(C)NC1=O [Example 346] (cyclo([Bip(4'-COOH)][4Pal][Phe(4-COOH)]G[Pro(cis-4-F)][Trp(βS-Me,4-F)][Aib]EW[Aib][Ala(pyrimidin-5-yl)]Q[Dab]G[dPro(3S-(4-F-Bn))]))"
3,0.017 nM,"CC(C)C[C@@H]1NC(=O)[C@@](C)(CC(=O)O)NC(=O)[C@H](Cc2c[nH]c3ccccc23)NC(=O)[C@H](CO)NC(=O)C(C)(C)NC(=O)[C@H]([C@@H](C)c2c[nH]c3cccc(F)c23)NC(=O)[C@@H]2C[C@H](F)CN2C(=O)CNC(=O)[C@H](Cc2ccc(C(=O)O)cc2)NC(=O)[C@H](CC23CC(C2)C3)NC(=O)[C@H](Cc2ccc(-c3ccc(C(=O)O)cc3)cc2)NC(=O)[C@H]2C[C@@H](Cc3ccncc3)CN2C(=O)CNC(=O)[C@H](CCN)NC(=O)[C@H](CCC(N)=O)NC1=O [Example 349] (cyclo([Bip(4'-COOH)][Ala(1-bicyclo(1.1.1)pentyl)][Phe(4-COOH)]G[Pro(cis-4-F)][Trp(βS-Me,4-F)][Aib]SW[d(αMeD)]LQ[Dab]G[dPro(4R-(4-pyridylmethyl))]))"
4,0.016 nM,"C[C@@H](c1c[nH]c2cccc(F)c12)[C@@H]1NC(=O)[C@@H]2C[C@H](F)CN2C(=O)CNC(=O)[C@H](Cc2ccc(C(=O)O)cc2)NC(=O)[C@H](Cc2ccncc2)NC(=O)[C@H](Cc2ccc(-c3ncc(C(=O)O)cn3)cc2)NC(=O)[C@H]2C[C@@H](Cc3ccncc3)CN2C(=O)CNC(=O)[C@H](CCN)NC(=O)[C@H](CCC(N)=O)NC(=O)[C@H](CC2CCOCC2)NC(=O)[C@@](C)(CC(=O)O)NC(=O)[C@H](Cc2c[nH]c3ccccc23)NC(=O)[C@H](CO)NC(=O)C(C)(C)NC1=O [Example 351] (cyclo([Phe(4-(5-CO2H-2-pyrimidyl))][4Pal][Phe(4-COOH)]G[Pro(cis-4-F)][Trp(βS-Me,4-F)][Aib]SW[d(αMeD)][Ala(4-THP)]Q[Dab]G[dPro(4R-(4-pyridylmethyl))]))"
